The values below come from patent publication US4803224A, “Antiviral antibiotic complex” (Bristol-Myers Company, priority 1986, dated 1989).

Common to all, as to format: cell-based
For series [1], the system named is Bacillus subtilis PCI-219. The experiment in a line: Paper disc-agar diffusion method. The note with it: "are believed to be". An excerpt: (§1) The production of BU-2231 in the fermentation medium may be followed readily during the course of fermentation by the paper disc-agar diffusion method using Bacillus subtilis PCI-219 and Mycobacterium smegmatis strain M6-3 as test organisms. The BU-2231 A and BU-2231 B components of BU-2231 antibiotic complex as well as the co-produced aminoglycoside complex (also referred to as the "nebramycin factors" or "nebramycin components") are believed to be active against B. subtilis but only the BU-2231 A and B comppnents show activity against Mycobacterium smegmatis strain M6-3.

Series [2] concerns Mycobacterium smegmatis strain M6-3. The experiment in a line: Paper disc-agar diffusion method.
From the text: as §1

The test system of series [3] is herpes simplex virus type I (HSV-1). The experiment in a line: Dye-uptake assay, HSV-1-Vero cell system. The note with it: for Dye-uptake assay, Activity vs HSV-1 (ID50): Vero cell. How it is done:
(§2) The results are shown in Table 2 together with their cytotoxicity against the host cells.
In order to examine the relationship between peptide chain length and antiviral activity, a partial acid hydrolysis of BU-2231 V was carried out by heating with 6N HCl at 100 deg. C. for one hour. The hydrolyzate was chromatographed on CM-cellulose to yield 8 peptide fragments. Number of D-α,γ-diaminobutyric acid residues in each peptide was determined by the DNP method and antiviral activity against HSV-1 assessed by the dye-uptake assay (Table 4).

Series [4] shares this test system. As to the kind of experiment: Plaque reduction assay, HSV-1-Vero cell system. The conditions noted are these: for Antiviral activity (in words): HSV-1, relative to the compounds tested; for Plaque reduction assay, Activity vs HSV-1 (ID50): Vero cell.
The test system of series [5] is Staphylococcus aureus Smith. As to the kind of experiment: 2-fold serial broth dilution, nutrient broth.
The subject of series [6] is Staphylococcus aureus BX-1633-2. As to the kind of experiment: 2-fold serial broth dilution, nutrient broth.
In series [7] the test system is Streptococcus faecalis A9612. As to the kind of experiment: 2-fold serial broth dilution, nutrient broth.
The test system of another series is Escherichia coli Juhl. As to the kind of experiment: 2-fold serial broth dilution, nutrient broth.
In series [8] the test system is Klebsiella pneumoniae A9977. The experiment in a line: 2-fold serial broth dilution, nutrient broth.
A further series relates to Proteus mirabilis A9554. The experiment in a line: 2-fold serial broth dilution, nutrient broth.
Series [9] concerns Serratia marcescens A20019. The experiment in a line: 2-fold serial broth dilution, nutrient broth.
In series [10] the test system is Enterobacter cloacae A9656. The experiment in a line: 2-fold serial broth dilution, nutrient broth.
Series [11] has as its system Haemophilus influenza A2241. As to the kind of experiment: 2-fold serial broth dilution, nutrient broth.
For series [12], the system named is Pseudomonas aeruginosa A9930. The experiment in a line: 2-fold serial broth dilution, nutrient broth.
In series [13] the test system is Gram-positive and Gram-negative bacteria. As to the kind of experiment: In vitro antibacterial activity, 2-fold serial broth dilution, overall.
Series [14] deals with Vero cell. As to the kind of experiment: Cytotoxicity against host cells (plaque reduction assay).
From the text: as §2

For series [15], the system named is Vero cell. As to the kind of experiment: Cytotoxicity against host cells (dye-uptake assay).
From the text: as §2

Entries after “also recorded” stand apart in the source; their conditions may differ. Read-outs that look alike come from different tables or passages of the source. Bounds are passed on as bounds.

Regarding `Cc1c(N)nc([C@H](CC(N)=O)NC[C@H](N)C(N)=O)nc1C(=O)N[C@H](C(=O)N[C@H](C)[C@@H](O)CC(=O)N[C@H](C(=O)NC(O[C@@H]1O[C@@H](C)[C@@H](N)[C@@H](O)[C@H]1O)C(O)c1nc(-c2nc(C(=O)NCCCC(N)CC(=O)NCCCNCCCCN)cs2)cs1)[C@@H](C)O)[C@H](O[C@@H]1O[C@@H](CO)[C@@H](O)[C@H](O)[C@@H]1O[C@H]1O[C@H](CO)[C@@H](O)[C@H](OC(N)=O)[C@@H]1O)c1c[nH]cn1` (stereo partly shown) [BU-2231 A], in series [1], the “Activity against B. subtilis (in words)” value is “active”. Besides, in series [2], the “Activity against Mycobacterium smegmatis strain M6-3 (in words)” value is reported as “show activity”.
As to `Cc1c(N)nc([C@H](CC(N)=O)NC[C@@H](N)C(N)=O)nc1C(=O)N[C@H](C(=O)N[C@H](C)[C@@H](O)CC(=O)N[C@@H](C(=O)NC(O[C@@H]1O[C@@H](C)[C@@H](N)[C@@H](O)[C@H]1O)C(O)c1nc(-c2nc(C(=O)NCCCNCCCCN)cs2)cs1)[C@@H](C)O)C(O[C@@H]1O[C@@H](CO)[C@H](O)[C@@H](O)[C@@H]1O[C@H]1O[C@H](CO)[C@@H](O)[C@@H](OC(N)=O)[C@@H]1O)c1cnc[nH]1` (stereo partly shown) [BU-2231 B], the “Activity against B. subtilis (in words)” value in [1] is given as “active”. In series [2], the “Activity against Mycobacterium smegmatis strain M6-3 (in words)” value was “show activity”.
Consider `NCC[C@@H](N)C(=O)O` [D-α,γ-DAB, D-α,γ-diaminobutyric acid], for which the IC50 in series [3] (Human alphaherpesvirus 1, Vero, partial hydrolyzates of BU-2231V, read-out: Anti-HSV-1 activity ID50) is above 660 µg/mL.
As to “α-poly-L-lysine [α-Poly-L-lysine (MW: 3,500)]”, the “Antiviral activity (in words)” value in [4] (listed as lower molecular α-poly-L-lysine) is “least active”. For the same compound, the “Plaque reduction assay, Activity vs HSV-1 (ID50)” value (“Plaque reduction assay, Activity” below) in [4] was determined as 42 µg/mL. Besides, the “Dye-uptake assay, Activity vs HSV-1 (ID50)” value in [3] was found to be 100 µg/mL. The “MIC by TDT” value in series [5] is 12.5 µg/mL; in series [6], 25 µg/mL; in series [7], above 100 µg/mL; in the series with Escherichia coli Juhl, 12.5 µg/mL; in series [8], 12.5 µg/mL; with Proteus mirabilis A9554, 50 µg/mL. The “MIC by TDT” value is above 100 µg/mL in series [9], above 100 µg/mL in series [10], 100 µg/mL in [11] and above 100 µg/mL in [12]. Moreover, the “Antibacterial activity (in words)” value in series [13] is listed as “moderate inhibitory activity”; in [13] (listed as α-poly-L-lysines), “little weaker than others”.
For “α-poly-L-lysine [α-Poly-L-lysine (MW: 25,000)]”, the “Antiviral activity (in words)” value in series [4] (listed as higher molecular α-poly-L-lysine) is given as “slightly less active than BU-2231 V”. Besides, the “Plaque reduction assay, Activity” value in series [4] is 1.8 µg/mL. For the same compound, the “Dye-uptake assay, Activity vs HSV-1 (ID50)” value in series [3] is above 20 µg/mL.
For ε-poly-L-lysine, the entries for the “Antiviral activity (in words)” value in [4] and in series [3] (HSV-1) were “slightly less active than BU-2231 V” and “comparably active”, respectively. Besides, in series [4], the “Plaque reduction assay, Activity” value worked out at 2.6 µg/mL. Besides, the “Dye-uptake assay, Activity vs HSV-1 (ID50)” value in series [3] was determined as 2.7 µg/mL. The “Plaque reduction assay, Cytotoxicity vs Vero cell (TCID50)” value in the series with Vero cell [14] amounted to 70 µg/mL. Further, in the series with Vero cell [15], the “Dye-uptake assay, Cytotoxicity vs Vero cell (TCID50)” value is above 100 µg/mL. In addition, the “MIC by TDT” value in series [5] was determined as 6.3 µg/mL; in [6], 6.3 µg/mL; in series [7], 50 µg/mL; in the series on Escherichia coli Juhl, 6.3 µg/mL; in series [8], 6.3 µg/mL; in the series on Proteus mirabilis A9554, 6.3 µg/mL. The “MIC by TDT” value worked out at 25 µg/mL in series [9], 25 µg/mL in series [10], 12.5 µg/mL in [11] and 12.5 µg/mL in series [12]. Besides, the “Antibacterial activity (in words)” value in [13] is reported as “moderate inhibitory activity; also recorded: comparable”.
